Marks after values point to notes of the source that are not given here.
Tests used:
[1] = Serum calcium in the rat ovariectomy model (safety); format: in vivo; conditions: OVX rats
Experimental: (§1) Comparison of the efficacy of Compound 7 to that of 1,25-dihydroxy vitamin D3 (i.e., VD3), was made using the standard animal model for post menopausal osteopenia, the rat ovariectomy model. Three month old rats weighing 285gm were ovariectomized (OVX), and then treated for 8 weeks beginning 1 week post OVX. Drugs were administered once/day orally in miglyol (medium chain triglyceride) vehicle. Blood and urine samples were collected at the 3 wk and 6 wk timepoint, and bone mineral density (BMD) was determined in vivo at 6 wk using Dual Energy X-ray Absorptiometry (Hologic QDR-4500™ Bone Scanner). At 8 weeks, the animals were sacrificed, and the lumbar vertebrae and femur bones removed for ex vivo BMD determination (Lunar PixiMus™ Bone Scanner) and biomechanical testing for strength. Data for each compound are reported in the accompanying tables for the highest safe doses.
(§2) The doses being compared all gave 3 wk serum calcium levels of 9.3 mg/dl, and 6 wk levels of 9.8±0.1 mg/dl. At these doses, the urinary calcium output per 24 hr sample was the same for the 0.4 nmol/kg dose of VD3 and the 0.5 nmol/kg dose of Compound 7. […] These doses represent those expected to give maximal efficacy achievable safely, as higher doses of each compound are known to be hypercalcemic. […] Failure Load, the amount of force needed to fracture the L5 vertebra, was determined in axial compression testing.

[2] = Urinary calcium in the rat ovariectomy model (safety); format: in vivo; conditions: OVX rats; for urinary calcium output per 24 hr sample, compared between the two substances: 0.4 nmol/kg dose of VD3 and 0.5 nmol/kg dose of Compound 7
Experimental: as §1, §2

[3] = system: rat ovariectomy model (post menopausal osteopenia); assay: Bone mineral density in vivo (Dual Energy X-ray Absorptiometry), rat ovariectomy model; conditions: OVX rats
Experimental: as §1, §2

[4] = system: rat ovariectomy model (post menopausal osteopenia); assay: L5 bone density ex vivo (BMD, BMC), rat ovariectomy model; format: in vivo; conditions: OVX rats
Experimental: as §1

[5] = system: rat ovariectomy model (post menopausal osteopenia); assay: Urinary deoxypyridinolines (marker of bone resorption), rat ovariectomy model; format: in vivo; conditions: OVX rats
Experimental: as §1, §2

[6] = system: rat ovariectomy model (post menopausal osteopenia); assay: L5 vertebral body biomechanics (axial compression testing), rat ovariectomy model; format: in vivo; conditions: OVX rats
Experimental: as §1, §2

[7] = system: women with postmenopausal osteoporosis; conditions: cited from earlier work
[8] = system: patients commencing long term treatment with prednisone or prednisolone; conditions: 0.5 to 1.0 micrograms/day plus calcium 1000 mg/day, with or without intranasal calcitonin 400 IU/day; cited from earlier work
[9] = Week 3, 0.012 nmol/kg once/day orally
[10] = Week 3, 0.04 nmol/kg once/day orally
[11] = Week 6, 0.012 nmol/kg once/day orally
[12] = Week 6, 0.04 nmol/kg once/day orally
[13] = Week 8, 0.012 nmol/kg once/day orally
[14] = Week 3, 0.5 nmol/kg once/day orally
[15] = Week 6, 0.5 nmol/kg once/day orally
[16] = Week 8, 0.5 nmol/kg once/day orally

Compound: C=C1/C(=C\C=C2/CCC[C@]3(C)[C@@H]([C@H](C)CCCC(C)(C)O)CC[C@@H]23)C[C@@H](O)C[C@@H]1O [VitD, 1,25-dihydroxy vitamin D3]
- SERUM CALCIUM, Mean [1, 9]: 9.3 nd mg/dl
- SERUM CALCIUM, Mean [1, 10]: 9.3 ns mg/dl
- SERUM CALCIUM, Mean [1, 11]: 9.8 **+ mg/dl
- SERUM CALCIUM, Mean [1, 12]: 9.7 ** mg/dl
- urinary calcium output per 24 hr sample, compared between the two substances [2]: the same
- URINARY CALCIUM, Mean [2, 9]: 0.31 ** MG/MMOL Creatineine/day
- URINARY CALCIUM, Mean [2, 10]: 0.51 **+ MG/MMOL Creatineine/day
- URINARY CALCIUM, Mean [2, 11]: 0.43 ** MG/MMOL Creatineine/day
- URINARY CALCIUM, Mean [2, 12]: 0.71 **++ MG/MMOL Creatineine/day
- PERCENT BMD > OVX CONTROL in vivo, Distal Femur, Mean [3, 11]: 2.8 ++ PERCENT
- PERCENT BMD > OVX CONTROL in vivo, L2-L4 Vertebrae, Mean [3, 11]: 3.3 ++ PERCENT
- PERCENT BMD > OVX CONTROL in vivo, L5 vertebrae, Mean [3, 11]: 2.7 ++ PERCENT
- PERCENT BMD > OVX CONTROL in vivo, Prox Femur, Mean [3, 11]: 3.5 ns PERCENT
- PERCENT BMD > OVX CONTROL in vivo, Whole Femur, Mean [3, 11]: 3.3 + PERCENT
- PERCENT BMD > OVX CONTROL in vivo, Distal Femur, Mean [3, 12]: 2.8 ++ PERCENT
- PERCENT BMD > OVX CONTROL in vivo, L2-L4 Vertebrae, Mean [3, 12]: 5.4 * PERCENT
- PERCENT BMD > OVX CONTROL in vivo, L5 vertebrae, Mean [3, 12]: 4.9 ++ PERCENT
- PERCENT BMD > OVX CONTROL in vivo, Prox Femur, Mean [3, 12]: 0.7 ++ PERCENT
- PERCENT BMD > OVX CONTROL in vivo, Whole Femur, Mean [3, 12]: 1.9 ++ PERCENT
- L5 Bone Density Ex Vivo, BMC, Mean [4, 13]: 0.035 ns g
- L5 Bone Density Ex Vivo, BMD, Mean [4, 13]: 0.103 ++ g/cm^2
- URINARY D-PYD, Mean [5, 9]: 0.81 ++ nM/mM Creatinine
- URINARY D-PYD, Mean [5, 10]: 0.75 ++ nM/mM Creatinine
- URINARY D-PYD, Mean [5, 11]: 0.78 ++ nM/mM Creatinine
- URINARY D-PYD, Mean [5, 12]: 0.76 ++ nM/mM Creatinine
- L5 Vertebral Body BIOMECHANICS, Failure Load, Mean [6, 13]: 342 * N
- lower rate of new vertebral fractures compared with patients receiving elemental calcium 1000 mg/day ([7]; mild to moderate disease, 0.25 microgram twice daily, after 3 years of treatment): 3 fold
- tolerability ([7]; patients, overall): well tolerated
- steroid-induced bone loss [8]: prevented steroid-induced bone loss

Compound: C=C1/C(=C\C=C2/CCC[C@]3(C)[C@@H](C4(C/C=C/C(O)(C(F)(F)F)C(F)(F)F)CC4)CC[C@@H]23)CCC[C@@H]1O [Compound 27]
- SERUM CALCIUM, Mean [1, 14]: 9.3 ns mg/dl
- SERUM CALCIUM, Mean [1, 15]: 9.9 **+ mg/dl
- urinary calcium output per 24 hr sample, compared between the two substances [2]: the same
- URINARY CALCIUM, Mean [2, 14]: 0.51 **+ MG/MMOL Creatineine/day
- URINARY CALCIUM, Mean [2, 15]: 0.72 **++ MG/MMOL Creatineine/day
- PERCENT BMD > OVX CONTROL in vivo, Distal Femur, Mean [3, 15]: 8.5 ** PERCENT
- PERCENT BMD > OVX CONTROL in vivo, L2-L4 Vertebrae, Mean [3, 15]: 10.3 ** PERCENT
- PERCENT BMD > OVX CONTROL in vivo, L5 vertebrae, Mean [3, 15]: 8.7 ** PERCENT
- PERCENT BMD > OVX CONTROL in vivo, Prox Femur, Mean [3, 15]: 5.7 ** PERCENT
- PERCENT BMD > OVX CONTROL in vivo, Whole Femur, Mean [3, 15]: 6.3 ** PERCENT
- BMD at all of the bone sites listed, compared with VD3 ([3]; doses which give equivalent serum calcium levels): significantly higher
- L5 Bone Density Ex Vivo, BMC, Mean [4, 16]: 0.039 ** g
- L5 Bone Density Ex Vivo, BMD, Mean [4, 16]: 0.112 ** g/cm^2
- Urinary deoxy-pyridinolines (marker of bone resorption), compared with VD3 ([5]; 6 weeks): significantly less
- URINARY D-PYD, Mean [5, 14]: 0.65 *+ nM/mM Creatinine
- URINARY D-PYD, Mean [5, 15]: 0.57 **+ nM/mM Creatinine
- vertebral bone strength ([6]; L5 vertebra): stronger vertebral bone
- L5 Vertebral Body BIOMECHANICS, Failure Load, Mean [6, 16]: 419 ** N
- Failure Load, force needed to fracture the L5 vertebra, compared with VD3 ([6]; axial compression testing, highest safe doses): Significantly more force was needed

From patent US7491711B2, “Methods of treatment using 3-desoxy vitamin D3 analogs” (Roche Palo Alto LLC, priority 2001, dated 2009)
